The subject of one experiment is Bloodstream form of Trypanosoma brucei, strain Lister 427. Briefly: Trypanosoma brucei growth inhibition assay (CellTiter-Glo, 24 h). Type of experiment: cell-based. To be noted: T. Brucei Growth Inibition Assay, class symbols; read-out: T. Brucei GI EC50. The protocol:
Bloodstream form of Trypanosoma brucei, strain Lister 427 (provided by Prof. Miguel Navarro, Instituto de Parasitologia y Biomedicina “Lopez-Neyra” Avda. Conocimiento S/N Parque Tecnologico Ciencias de la Salud—Spain; ref. Navarro M. and Cross G. A. M. Molecular and Cellular Biology, 1996, Vol. 16, No. 7, pp. 3615-3625) were grown in IMDM Iscove's Modified Dulbecco's Medium (SIGMA #17633) supplemented with: 3.024 g/l sodium bicarbonate, hypoxanthine 1 mM, thymidine 0.16 mM, bathocuprione sulfonic acid 0.05 mM, cysteine 1.5 mM, ß-mercaptoethanol […] and 10% foetal bovine serum (heat-inactivated at 56° C. for 30 min). Parasites were grown at 37° C. in flasks with vented caps in a 5% CO2 incubator to a maximum cell density of about 2×10^6/ml and diluted every two-three days.
The compounds of the invention were dissolved in DMSO and transferred to assay plates by acoustic droplet ejection (ATS-100, EDC Biosystems, USA) in order to obtain an appropriate concentration and to keep the concentration of DMSO below or equal to 0.25% in the final assay volume of 30 μL. 1500 parasites resuspended in 30 μL of culture medium were then transferred to each well of a 384-well plate.
After an incubation period of 24 hours at 37° C., each well is added 15 μl of CellTiter-Glo® Reagent (Promega) and incubated at room temperature. 5-10 min post incubation, the plate is read using a luminometer (ViewLux®). A known inhibitor of the growth of T. brucei was used as the reference positive control.
Regarding `COc1nc2ccccc2cc1-c1cnc(C2CN(CC3CCOC3)CCN2C(=O)CCc2n[nH]c3c2CCCC3)[nH]1` (centres unmarked), the EC50 (commonly the concentration that produces a half-maximal response) lay in the range of 1.01 to 5 µM.

The experiment is the same for the next values; noted with them: Trypanosoma brucei; T. Brucei Growth Inibition Assay, class symbols; read-out: T. Brucei GI EC50.
`COc1ccc2nc(C)n(CC(=O)N3CC[C@H](NCC4CCOC4)C[C@H]3c3ncc(-c4cc5ccccc5nc4OC)[nH]3)c2c1` (some centres unmarked): the EC50 was in the range of 1.01 to 5 µM.

Take `COc1ccccc1C(=O)N1CCN(C)CC1c1ncc(-c2ccc3ccccc3c2)[nH]1` (centres unmarked): the EC50 is 1.01 to 5 µM.

`CO[C@@](C(=O)N1CCN(C)C[C@@H]1c1ncc(-c2ccc3ccccc3c2)[nH]1)(c1ccccc1)C(F)(F)F`: the half-maximal effective concentration (EC50) fell in the range of 1.01 to 5 µM.

For the compound `COc1ccc2nc(C(F)(F)F)n(CC(=O)N3CCN(Cc4ccnnc4)C[C@H]3c3ncc(-c4cc5ccccc5nc4OC)[nH]3)c2c1` [(S)-2-(6-methoxy-2-(trifluoromethyl)-1H-benzo[d]imidazol-1-yl)-1-(2-(5-(2-methoxyquinolin-3-yl)-1H-imidazol-2-yl)-4-(pyridazin-4-ylmethyl)piperazin-1-yl)ethan-1-one], the EC50 was under 0.1 µM.

Consider `O=C(Cc1n[nH]c2ccccc12)N1CCN(CC2CC2)CC1c1ncc(-c2ccc3ccccc3c2)[nH]1` (centres unmarked), for which the EC50 fell in the range of 1.01 to 5 µM.

Take `CCC(=O)CCCN1CCN(C(=O)Cc2c(C)[nH]c3ccc(OC)cc23)C(c2ncc(-c3ccccc3)[nH]2)C1` (centres unmarked): the concentration giving a half-maximal response (EC50) was in the range of 0.1 to 0.5 µM.

In the case of `COc1ccc2nc(C(F)(F)F)n(CC(=O)N3CC[C@H](NCc4cnccn4)C[C@H]3c3ncc(-c4cc5ccccc5nc4OC)[nH]3)c2c1` [2-(6-methoxy-2-(trifluoromethyl)-1H-benzo[d]imidazol-1-yl)-1-((2S,4S)-2-(5-(2-methoxyquinolin-3-yl)-1H-imidazol-2-yl)-4-((pyrazin-2-ylmethyl)amino)piperidin-1-yl)ethan-1-one], the EC50 was under 0.1 µM.

Consider `CCC(=O)CCCN1CCN(C(=O)Cc2c[nH]c3ccccc23)[C@H](c2ncc(-c3ccc4ccccc4c3)[nH]2)C1`, for which the concentration giving a half-maximal response (EC50) was in the range of 0.1 to 0.5 µM.

On to `COc1ccc2nc(C)n(CC(=O)N3CCN(CC4CCOC4)C[C@H]3c3ncc(-c4cc5ccccc5n4C(=O)OC(C)(C)C)[nH]3)c2c1` (some centres unmarked), for which the concentration giving a half-maximal response (EC50) was in the range of 1.01 to 5 µM.

Regarding `Cc1[nH]c2ccccc2c1CC(=O)N1CCN(CC2CCOC2)CC1c1ncc(-c2ccc3ccccc3c2)[nH]1` (centres unmarked) [2-(2-methyl-1H-indol-3-yl)-1-(2-(5-(naphthalen-2-yl)-1H-imidazol-2-yl)-4-((tetrahydrofuran-3-yl)methyl)piperazin-1-yl)ethan-1-one], the concentration giving a half-maximal response (EC50) was under 0.1 µM.

For `COc1ccc2nc(C(F)(F)F)n(CC(=O)N3CCN(Cc4cscn4)CCC3c3ncc(-c4cc5ccccc5nc4OC)[nH]3)c2c1` (centres unmarked) [2-(6-methoxy-2-(trifluoromethyl)-1H-benzo[d]imidazol-1-yl)-1-(7-(5-(2-methoxyquinolin-3-yl)-1H-imidazol-2-yl)-4-(thiazol-4-ylmethyl)-1,4-diazepan-1-yl)ethan-1-one], the EC50 is under 0.1 µM.

Consider `COc1ccc2nc(C(F)(F)F)n(CC(=O)N3CCN(CC4COC4)CCC3c3ncc(-c4cc5ccccc5nc4OC)[nH]3)c2c1` (centres unmarked), for which the EC50 fell in the range of 0.1 to 0.5 µM.

Turning to `COc1ccc2nc(C)n(CC(=O)N3CCN(CC4CCOC4)C[C@H]3c3ncc(-c4ccc5ncccc5c4)[nH]3)c2c1` (some centres unmarked), the 50% effective concentration (EC50) was in the range of 1.01 to 5 µM.

Take `COc1ccc2[nH]c(C)c(CC(=O)N3CC(=O)N(C)CC3c3ncc(-c4ccc5ccccc5c4)[nH]3)c2c1` (centres unmarked) [4-(2-(5-methoxy-2-methyl-1H-indol-3-yl)acetyl)-1-methyl-5-(5-(naphthalen-2-yl)-1H-imidazol-2-yl)piperazin-2-one]: the EC50 was in the range of 0.51 to 1 µM.

Turning to `COc1ccc2nc(C)n(CC(=O)N3CCN(CC4CCOC4)C[C@H]3c3ncc(-c4ccc(-c5ccccc5)nc4OC)[nH]3)c2c1` (some centres unmarked), the EC50 was 0.51 to 1 µM.

As to `COc1nc2ccccc2cc1-c1cnc([C@@H]2CN(CC3CCOC3)CCN2C(=O)Cn2c(CC(F)(F)F)nc3ccccc32)[nH]1` (some centres unmarked), the EC50 was in the range of 0.1 to 0.5 µM.

In the case of `COc1ccc2[nH]c(C)c(CC(=O)N3CCN(CCCC(=O)O)CC3c3ncc(-c4ccc5ccccc5c4)[nH]3)c2c1` (centres unmarked), the half-maximal effective concentration (EC50) was in the range of 1.01 to 5 µM.

Take `CCC(=O)CCCN1CCN(S(=O)(=O)c2ccccc2)C(c2ncc(-c3ccc4ccccc4c3)[nH]2)C1` (centres unmarked) [6-(3-(5-(naphthalen-2-yl)-1H-imidazol-2-yl)-4-(phenylsulfonyl)piperazin-1-yl)hexan-3-one]: the concentration for a half-maximal effect (EC50) was 1.01 to 5 µM.

Turning to `Cc1csc(CC(=O)N2CCN(CCc3ccccc3)CC2c2ncc(-c3ccc4ccccc4c3)[nH]2)n1` (centres unmarked), the EC50 fell in the range of 1.01 to 5 µM.

As for `COc1nc2ccccc2cc1-c1cnc([C@@H]2CN(Cc3cnccn3)CCN2C(=O)Cn2c(C(F)(F)F)nc3ccccc32)[nH]1` [(S)-1-(2-(5-(2-methoxyquinolin-3-yl)-1H-imidazol-2-yl)-4-(pyrazin-2-ylmethyl)piperazin-1-yl)-2-(2-(trifluoromethyl)-1H-benzo[d]imidazol-1-yl)ethan-1-one], the EC50 is under 0.1 µM.

On to `COc1nc2ccccc2cc1-c1cnc([C@@H]2CN(Cc3ccn(C)n3)CCN2C(=O)Cn2c(C(F)(F)F)nc3ccccc32)[nH]1` [(S)-1-(2-(5-(2-methoxyquinolin-3-yl)-1H-imidazol-2-yl)-4-((1-methyl-1H-pyrazol-3-yl)methyl)piperazin-1-yl)-2-(2-(trifluoromethyl)-1H-benzo[d]imidazol-1-yl)ethan-1-one], for which the EC50 is under 0.1 µM.

Take `COc1ccc2nc(C(F)(F)F)n(CC(=O)N3CCC(O)C[C@H]3c3ncc(-c4cc5ccccc5nc4OC)[nH]3)c2c1` (stereo partly drawn) [1-((2S)-4-hydroxy-2-(5-(2-methoxyquinolin-3-yl)-1H-imidazol-2-yl)piperidin-1-yl)-2-(6-methoxy-2-(trifluoromethyl)-1H-benzo[d]imidazol-1-yl)ethan-1-one]: the EC50 was under 0.1 µM.

Turning to `COc1nc2ccccc2cc1-c1cnc(C2CN(CC3CCOC3)CCN2C(=O)Cc2sc3ccccc3c2C)[nH]1` (centres unmarked), the EC50 lay in the range of 0.1 to 0.5 µM.

As to `COc1nc2ccccc2cc1-c1cnc(C2CN(CC3CCOC3)CCN2C(=O)Cn2nnc3ccccc32)[nH]1` (centres unmarked), the EC50 was in the range of 0.51 to 1 µM.

On to `COc1ccc2nc(C(F)(F)F)n(CC(=O)N3CCN(C(C)C)CCC3c3ncc(-c4cc5ccccc5nc4OC)[nH]3)c2c1` (centres unmarked), for which the EC50 was in the range of 0.1 to 0.5 µM.

Take `COc1nc2ccccc2cc1-c1cnc([C@@H]2CN(Cc3ccon3)CCN2C(=O)Cn2c(C(F)(F)F)nc3ccccc32)[nH]1` [(S)-1-(4-(isoxazol-3-ylmethyl)-2-(5-(2-methoxyquinolin-3-yl)-1H-imidazol-2-yl)piperazin-1-yl)-2-(2-(trifluoromethyl)-1H-benzo[d]imidazol-1-yl)ethan-1-one]: the EC50 is under 0.1 µM.

For `COc1ncc(CN2CCN(C(=O)Cc3c(C)[nH]c4ccc(F)cc34)C(c3ncc(-c4cc5ccccc5nc4OC)[nH]3)C2)cn1` (centres unmarked), the EC50 was 0.1 to 0.5 µM.

`COc1nc2ccccc2cc1-c1cnc(C2COCCN2C(=O)OCc2ccccc2)[nH]1` (centres unmarked) [benzyl 3-(5-(2-methoxyquinolin-3-yl)-1H-imidazol-2-yl)morpholine-4-carboxylate]: the concentration for a half-maximal effect (EC50) was in the range of 1.01 to 5 µM.

In the case of `COc1ccc2nc(C(F)(F)F)n(CC(=O)N3CCN(Cc4cocn4)C[C@H]3c3ncc(-c4cc5ccccc5nc4OC)[nH]3)c2c1` [(S)-2-(6-methoxy-2-(trifluoromethyl)-1H-benzo[d]imidazol-1-yl)-1-(2-(5-(2-methoxyquinolin-3-yl)-1H-imidazol-2-yl)-4-(oxazol-4-ylmethyl)piperazin-1-yl)ethan-1-one], the EC50 was under 0.1 µM.

`COc1ccc2nc(C)n(CC(=O)N3CCN(CC4CCOC4)C[C@H]3c3ncc(-c4ccc5ncsc5c4)[nH]3)c2c1` (stereo partly drawn) [1-((2S)-2-(5-(benzo[d]thiazol-6-yl)-1H-imidazol-2-yl)-4-((tetrahydrofuran-3-yl)methyl)piperazin-1-yl)-2-(6-methoxy-2-methyl-1H-benzo[d]imidazol-1-yl)ethan-1-one]: the 50% effective concentration (EC50) was 1.01 to 5 µM.

In the case of `COc1nc2ccccc2cc1-c1cnc([C@@H]2CN(CC3CCOC3)CCN2C(=O)Cn2c(C)nc3ccc(C(F)(F)F)cc32)[nH]1` (stereo partly drawn) [1-((2S)-2-(5-(2-methoxyquinolin-3-yl)-1H-imidazol-2-yl)-4-((tetrahydrofuran-3-yl)methyl)piperazin-1-yl)-2-(2-methyl-6-(trifluoromethyl)-1H-benzo[d]imidazol-1-yl)ethan-1-one], the EC50 was under 0.1 µM.

On to `Cn1cc(CC(=O)N2CCN(CC3CC3)CC2c2ncc(-c3ccc4ccccc4c3)[nH]2)c2ccccc21` (centres unmarked), for which the EC50 was 1.01 to 5 µM.

As to `COc1ccc2onc(CC(=O)N3CCN(CC4CCOC4)C[C@H]3c3ncc(-c4cc5ccccc5nc4OC)[nH]3)c2c1` (some centres unmarked), the 50% effective concentration (EC50) was in the range of 0.1 to 0.5 µM.

Turning to `COc1ccc2nc(C)n(CC(=O)N3CCN(CC4CCOC4)C[C@H]3c3ncc(-c4cnc5ccccc5c4)[nH]3)c2c1` (some centres unmarked), the concentration giving a half-maximal response (EC50) lay within 0.51 to 1 µM.

Turning to `COc1nc2ccccc2cc1-c1cnc(C2CN(Cc3cnccn3)CCN2C(=O)Cc2c(C)[nH]c3ccc(F)cc23)[nH]1` (centres unmarked) [2-(5-fluoro-2-methyl-1H-indol-3-yl)-1-(2-(5-(2-methoxyquinolin-3-yl)-1H-imidazol-2-yl)-4-(pyrazin-2-ylmethyl)piperazin-1-yl)ethan-1-one], the EC50 was under 0.1 µM.

`COc1nc2ccccc2cc1-c1cnc(C2CN(CC3CCOC3)CCN2C(=O)Cn2c(=O)ncc3ccccc32)[nH]1` (centres unmarked): the EC50 is 1.01 to 5 µM.

For the compound `COc1nc2ccccc2cc1-c1cnc(C2CNCCN2C(=O)Cn2c(C)nc3ccccc32)[nH]1` (centres unmarked), the EC50 lay in the range of 1.01 to 5 µM.
